Test results from PMC4536136 (Bioorganic & medicinal chemistry, 2015).

How the values were obtained:
[1] = target: intracellular Leishmania donovani strain MHOM/ET/67/L82 β-lactamase expressing parasites; conditions: cited from earlier work; for EC50: read-out: L. donovani EC50, ref Van Horn et al.[18]
L. donovani = conditions: 15 mg/kg/day for five days, ip; cited from earlier work
[2] = Pharmacokinetic analysis after ip administration in mice; type: in vivo; conditions: for Kp / concentration at 4 h / concentration at 12 h: Swiss Webster, mouse, ip, 10 mg/kg; for Kp: liver and spleen (versus plasma)
BALB/c mice = assay: Toxicity to BALB/c mice; type: in vivo

Row | Structure (SMILES) | EC50 [1] | Kp [2] | concentration at 4 h ([2]; liver) | concentration at 12 h ([2]; liver) | concentration at 4 h ([2]; spleen) | concentration at 12 h ([2]; spleen) | toxicity to BALB/c mice (BALB/c mice; 10 mg/kg/day × 5, ip) | toxicity to BALB/c mice (BALB/c mice; 30 mg/kg/day × 5, ip) | also measured
1 | c1ccc(CNc2nc(NCc3ccccc3)c3ccccc3n2)cc1 [Compound 1, N^2,N^4-dibenzylquinazoline-2,4-diamine] | 0.67 ± 0.27 µM | – | – | – | – | – | – | – | –
2 | CNc1nc(NCc2ccccc2)nc2ccccc12 [Compound 2, N^2-benzyl-N^4-methylquinazoline-2,4-diamine] | 0.15 ± 0.02 µM | – | – | – | – | – | – | – | –
3 | CC(C)Nc1nc(NCc2ccco2)c2ccccc2n1 [Compound 3] | 2.5 ± 0.4 µM | – | – | – | – | – | – | – | –
4 | Cc1ccc2c(NCc3ccco3)nc(NC(C)C)nc2c1 [Compound 4, N^4-(furan-2-ylmethyl)-N^2-isopropyl-7-methylquinazoline-2,4-diamine] | – | – | – | – | – | – | – | – | L. donovani EC50 ([1]; ref Van Horn et al.[18]): submicromolar; activity in L. donovani-infected mice (L. donovani): promising activity
5 | Clc1ccc(CNc2nc(NCc3ccccc3)c3ccccc3n2)cc1 [Compound 15, N^4-benzyl-N^2-(4-chlorobenzyl)quinazoline-2,4-diamine] | – | 20 to 21 | 25.3 µM | 25.3 µM | 26.6 µM | 26.6 µM | no apparent adverse effects | toxic | plasma AUC relative to 40 after adjusting for dose ([2]; 10 mg/kg ip, mice): 2.8 fold
6 | CC(C)Nc1nc(NCc2ccccc2)nc2ccccc12 [Compound 40, N^2-benzyl-N^4-isopropylquinazoline-2,4-diamine] | – | 3.2 to 16 | 20.2 µM | 20.2 µM | 16.5 µM | 16.5 µM | no apparent adverse effects | toxic | –
